Legend:
[1] = target: T1, human cardiac sodium channel, hNav1.5 (Homo sapiens, UniProt Q14524); assay: Late INa screening assay (automated whole cell patch clamp, PatchXpress; late current generated with 10 μM Tefluthrin); type: cell-based; details: HEK293 cells expressing hNav1.5; for inhibition at 10 µM: 10 μM test compound, read-out: Late Ina % blk (10 μM test cmpd)
T1 construct: host or cells: HEK293
Protocol: The late sodium current (Late INa) and peak sodium current (Peak INa) assays were performed on an automated electrophysiology platform, PatchXpress 7000A (MDS Analytical Technologies, Sunnyvale, Calif.), which uses the whole cell patch clamp technique to measure currents through the cell membrane of up to 16 cells at a time. The assay uses an HEK293 (human embryonic kidney) cell line heterologously expressing the wild-type human cardiac sodium channel, hNav1.5, purchased from Millipore (Billerica, Mass.). No beta subunits were coexpressed with the Na channel alpha subunit. Cells were maintained with standard tissue culture procedures and stable channel expression was maintained with 400 μg/ml Geneticin in the culture medium. Cells isolated for use on PatchXpress were incubated for 5 minutes in Versene 1X and then for 2 minutes in 0.0125% Trypsin-EDTA (both at 37° C.) to ensure that 80-90% of the cells are single and not part of a cell cluster. Experiments were carried out at 24-27° C.
For both the Late INa and Peak INa assays, series resistance compensation was set to 50% and whole-cell compensation is performed automatically. Currents were low-pass filtered at 10 kHz and digitized at 31.25 kHz. Currents through open sodium channels were automatically recorded and stored in the DataXpress2 database (MDS Analytical Technologies, Sunnyvale, Calif.). Analysis is performed using DataXpress2 analysis software and data are compiled in Excel.
Compound stocks were routinely made in glass vials to 10 mM in dimethyl sulfoxide (DMSO). In some cases, when compounds were not soluble in DMSO, they were made in 100% ethanol. Stocks were sonicated as necessary. The extracellular solution for screening Late INa was composed of: 140 mM NaCl, 4 mM KCl, 1.8 mM CaCl2, 0.75 mM MgCl2, and 5 mM HEPES with pH adjusted to 7.4 using NaOH. The extracellular solution for screening Peak INa was composed of: 20 mM NaCl, 120 mM N-methyl-D glucamine, 4 mM KCl, 1.8 mM CaCl2, 0.75 mM MgCl2, and 5 mM HEPES with pH adjusted to 7.4 using HCl. The intracellular solution used to perfuse the inside of the cells for both the Late INa and Peak INa assays contained: 120 mM CsF, 20 mM CsCl, 5 mM EGTA, 5 mM HEPES and pH adjusted to 7.4 with CsOH. […] The 0Na extracellular solution used at the end of each experiment for the Late INa and Peak INa assays to measure baseline current contained: 140 mM N-methyl-D-glucamine; 4 mM KCl; 1.8 mM CaCl2; 0.75 mM MgCl2; 5 mM HEPES and pH was adjusted to 7.4 with HCl.
For the Late INa assay, sodium channels were activated every 10 seconds (0.1 Hz) by depolarizing the cell membrane to −20 mV for 250 milliseconds (ms) from a holding potential of −120 mV. In response to a −20 mV voltage step, typical Nav1.5 sodium currents activate rapidly to a peak negative current and then inactivate nearly completely within 3-4 ms.
All compounds were tested to determine their activity in blocking the late sodium current. Late INa current was generated by adding 10 μM Tefluthrin (pyrethroid) to the extracellular solution while recording Na currents.

hERG potassium channel = target: T2, hERG potassium channel (Homo sapiens, UniProt Q12809); assay: hERG screening assay (PatchXpress automated patch clamp, CHO cell line); type: cell-based; details: CHO cells; for hERG Patch Clamp hERG % blk (1 μm test cmpd): 1 μm test compound; for hERG Patch Clamp hERG % blk (10 μm test cmpd): 10 μm test compound
T2 construct: expressed in transfected cells; host or cells: CHO (Chinese Hamster Ovary)
T2 sequence (Q12809 whole entry): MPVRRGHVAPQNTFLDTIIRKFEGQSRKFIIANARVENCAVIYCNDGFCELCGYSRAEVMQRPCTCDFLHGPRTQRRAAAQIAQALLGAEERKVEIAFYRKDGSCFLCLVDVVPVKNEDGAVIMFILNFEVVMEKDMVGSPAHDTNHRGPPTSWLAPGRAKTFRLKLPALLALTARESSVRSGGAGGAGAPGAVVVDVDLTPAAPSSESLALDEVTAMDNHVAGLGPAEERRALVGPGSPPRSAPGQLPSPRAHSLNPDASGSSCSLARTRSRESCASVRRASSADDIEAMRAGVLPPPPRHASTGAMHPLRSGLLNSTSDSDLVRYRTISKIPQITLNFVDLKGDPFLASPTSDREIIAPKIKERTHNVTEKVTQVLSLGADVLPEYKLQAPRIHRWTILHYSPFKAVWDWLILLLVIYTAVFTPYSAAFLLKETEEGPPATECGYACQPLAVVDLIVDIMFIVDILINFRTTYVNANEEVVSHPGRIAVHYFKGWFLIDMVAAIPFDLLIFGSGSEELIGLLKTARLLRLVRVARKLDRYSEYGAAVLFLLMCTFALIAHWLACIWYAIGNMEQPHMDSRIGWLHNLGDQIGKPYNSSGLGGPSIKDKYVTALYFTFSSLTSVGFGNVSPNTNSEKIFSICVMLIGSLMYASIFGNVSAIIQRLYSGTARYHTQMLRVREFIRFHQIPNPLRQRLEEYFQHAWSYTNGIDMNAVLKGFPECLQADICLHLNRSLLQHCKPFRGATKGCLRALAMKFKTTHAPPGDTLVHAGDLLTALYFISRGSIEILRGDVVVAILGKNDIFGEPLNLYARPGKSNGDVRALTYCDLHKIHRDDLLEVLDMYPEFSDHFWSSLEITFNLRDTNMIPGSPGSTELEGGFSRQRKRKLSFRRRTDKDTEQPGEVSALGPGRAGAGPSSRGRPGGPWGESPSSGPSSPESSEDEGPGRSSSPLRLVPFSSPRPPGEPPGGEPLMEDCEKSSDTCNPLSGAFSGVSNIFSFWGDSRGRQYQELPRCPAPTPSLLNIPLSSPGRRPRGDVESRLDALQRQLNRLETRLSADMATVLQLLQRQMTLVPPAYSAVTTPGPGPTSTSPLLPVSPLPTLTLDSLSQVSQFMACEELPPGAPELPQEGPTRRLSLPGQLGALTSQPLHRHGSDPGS
Protocol: Compounds were screened to test their activity in blocking the hERG potassium channel. The hERG channel is heterologously expressed in a CHO (Chinese Hamster Ovary) cell line. Cells were maintained with standard tissue culture procedures and stable channel expression is maintained with 500 μg/ml G418 in the culture medium. Cells were harvested for testing on the PatchXpress automated patch clamp with Accumax (Innovative Cell Technologies, San Diego, Calif.) to isolate single cells.
The following solutions were used for electrophysiological recordings. The external solution contains: 2 mM CaCl2; 2 mM MgCl2; 4 mM KCl; 150 mM NaCl; 10 mM Glucose; 10 mM HEPES (pH 7.4 with 1M NaOH, osmolarity). The internal solution contained: 140 mM KCl, 10 mM MgCl2, 6 mM EGTA, 5 mM HEPES, 5 mM ATP (pH adjusted to 7.25 with KOH).
hERG channels are activated when the voltage is stepped to +20 mV from the −80 mV holding potential. During a 5 second step at +20 mV, the channels activate and then largely inactivate, so the currents are relatively small. Upon returning to −50 mV from +20 mV, hERG currents transiently become much larger as inactivation is rapidly removed and then the channel closes. The first step to −50 mV for 300 ms is used as a baseline for measuring the peak amplitude during the step to −50 mV after channel activation. The peak current at −50 mV was measured both under control conditions and after addition of compound.
All compounds were prepared as 10 mM DMSO stocks in glass vials. Stock solutions were mixed by vigorous vortexing and sonication for about 2 minutes at room temperature. For testing, compounds were diluted in glass vials using an intermediate dilution step in pure DMSO and then further diluted to working concentrations in external solution. Dilutions were prepared no longer than 20 minutes before use.
After achieving the whole-cell configuration, cells were monitored for 90 seconds to assess stability and washed with external solution for 66 seconds. The voltage protocol described above was then applied to the cells every 12 seconds and throughout the whole procedure. Only cells with stable recording parameters and meeting specified health criteria were allowed to enter the compound addition procedure.
External solution containing 0.1% DMSO (vehicle) was applied to the cells first to establish the control peak current amplitude. After allowing the current to stabilize for 3 to 5 minutes, 1 μM and then 10 μM test compounds was applied. Each compound concentration was added 4 times and cells were kept in test solution until the effect of the compound reaches steady state or for a maximum of 12 minutes. After addition of test compound, a positive control (1 μM Cisapride) was added and must block >95% of the current for the experiment to be considered valid. Washout in the external solution compartment was performed until the recovery of the current reaches steady state. Data were analyzed using DataXpress, Clampfit (Molecular Devices, Inc., Sunnyvale) and Origin 7 (Originlab Corp.)

T1 sequence (Q14524 whole entry): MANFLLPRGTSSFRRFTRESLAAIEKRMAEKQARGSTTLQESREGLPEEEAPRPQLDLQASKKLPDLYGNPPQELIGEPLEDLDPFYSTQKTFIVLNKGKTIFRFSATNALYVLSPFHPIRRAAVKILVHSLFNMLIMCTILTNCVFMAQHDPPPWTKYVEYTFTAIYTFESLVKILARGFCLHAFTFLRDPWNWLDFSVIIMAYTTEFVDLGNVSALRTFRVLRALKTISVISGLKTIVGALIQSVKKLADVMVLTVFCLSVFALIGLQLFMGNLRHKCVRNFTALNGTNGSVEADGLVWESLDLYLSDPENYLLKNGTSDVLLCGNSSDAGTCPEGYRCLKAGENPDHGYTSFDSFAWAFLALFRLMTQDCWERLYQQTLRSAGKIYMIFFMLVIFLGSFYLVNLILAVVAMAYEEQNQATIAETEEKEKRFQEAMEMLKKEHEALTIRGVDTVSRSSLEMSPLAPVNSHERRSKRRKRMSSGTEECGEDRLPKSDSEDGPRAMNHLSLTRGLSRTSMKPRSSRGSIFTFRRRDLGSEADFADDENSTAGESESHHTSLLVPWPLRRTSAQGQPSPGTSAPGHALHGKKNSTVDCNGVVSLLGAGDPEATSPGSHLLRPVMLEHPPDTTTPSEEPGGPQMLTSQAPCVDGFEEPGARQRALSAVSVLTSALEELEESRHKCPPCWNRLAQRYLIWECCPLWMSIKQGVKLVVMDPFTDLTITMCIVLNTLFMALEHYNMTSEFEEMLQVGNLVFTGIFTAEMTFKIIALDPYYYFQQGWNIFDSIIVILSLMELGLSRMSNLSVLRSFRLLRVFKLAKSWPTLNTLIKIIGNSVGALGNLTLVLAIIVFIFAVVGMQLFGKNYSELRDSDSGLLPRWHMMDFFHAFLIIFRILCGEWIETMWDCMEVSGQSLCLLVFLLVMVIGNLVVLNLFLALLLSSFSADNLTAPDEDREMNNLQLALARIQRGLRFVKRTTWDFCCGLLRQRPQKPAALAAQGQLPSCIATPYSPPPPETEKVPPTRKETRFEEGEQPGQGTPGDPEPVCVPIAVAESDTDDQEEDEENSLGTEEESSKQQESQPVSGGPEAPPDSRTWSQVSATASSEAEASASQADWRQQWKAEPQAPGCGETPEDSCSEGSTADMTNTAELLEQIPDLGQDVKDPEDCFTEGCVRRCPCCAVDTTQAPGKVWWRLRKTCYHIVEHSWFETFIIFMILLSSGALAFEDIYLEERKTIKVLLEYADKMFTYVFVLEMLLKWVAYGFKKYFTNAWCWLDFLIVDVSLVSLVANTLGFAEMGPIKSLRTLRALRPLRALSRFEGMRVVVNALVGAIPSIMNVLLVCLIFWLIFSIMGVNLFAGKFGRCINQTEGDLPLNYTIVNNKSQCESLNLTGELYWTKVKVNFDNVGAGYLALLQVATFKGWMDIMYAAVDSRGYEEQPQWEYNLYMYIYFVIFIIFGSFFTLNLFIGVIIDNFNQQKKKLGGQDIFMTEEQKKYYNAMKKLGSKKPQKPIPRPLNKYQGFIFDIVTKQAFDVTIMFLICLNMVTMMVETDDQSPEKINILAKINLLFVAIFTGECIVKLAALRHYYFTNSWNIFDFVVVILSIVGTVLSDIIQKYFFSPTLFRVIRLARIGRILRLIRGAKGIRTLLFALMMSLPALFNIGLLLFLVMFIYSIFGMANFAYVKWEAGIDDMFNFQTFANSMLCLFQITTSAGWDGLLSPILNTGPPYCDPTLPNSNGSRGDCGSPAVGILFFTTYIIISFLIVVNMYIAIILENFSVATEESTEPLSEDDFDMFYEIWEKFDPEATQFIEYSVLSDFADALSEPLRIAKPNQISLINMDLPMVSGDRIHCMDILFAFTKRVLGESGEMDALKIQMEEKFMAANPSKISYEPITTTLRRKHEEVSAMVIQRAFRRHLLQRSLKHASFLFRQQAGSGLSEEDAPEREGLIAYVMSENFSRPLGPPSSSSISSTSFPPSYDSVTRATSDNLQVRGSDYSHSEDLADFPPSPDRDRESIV

SMILES	inhibition at 10 µM [1]	other results
Cc1nc2ccccc2c(C)c1C(=O)OCc1ccccc1Br [PT-028, 2-bromobenzyl 2,4-dimethylquinoline-3-carboxylate]	82.4%	Late Ina % blk (1 μM test cmpd) ([1]; 1 μM test compound): 39.2%
Cc1nc2ccc(Cl)cc2c(-c2ccccc2Cl)c1C(=O)OCc1ccccc1Br [PT-027, 2-bromobenzyl 6-chloro-4-(2-chlorophenyl)-2-methylquinoline-3-carboxylate]	45.3%	–
CCOC(=O)c1c(COc2ccc(Cl)cc2OC)nc2ccc(Cl)cc2c1-c1ccccc1 [PT-011, ethyl 6-chloro-2-[(4-chloro-2-methoxyphenoxy)methyl]-4-phenylquinoline-3-carboxylate]	18.1%	–
CCOC(=O)c1c(Cn2cnnn2)nc2ccc(Cl)cc2c1-c1ccccc1 [PT-010, ethyl 6-chloro-4-phenyl-2-(1H-tetrazol-1-ylmethyl)quinoline-3-carboxylate]	41.6%	hERG Patch Clamp hERG % blk (1 μm test cmpd) (hERG potassium channel): 18.5%; hERG Patch Clamp hERG % blk (10 μm test cmpd) (hERG potassium channel): 66.0%
Cc1nc2ccc(Cl)cc2c(-c2ccccc2)c1C(=O)N1CCC(c2ccc(C(N)=O)cc2)CC1 [PT-017, 4-{1-[(6-chloro-2-methyl-4-phenylquinolin-3-yl)carbonyl]piperidin-4-yl}benzamide]	29.4%	hERG Patch Clamp hERG % blk (1 μm test cmpd) (hERG potassium channel): 28.5%; hERG Patch Clamp hERG % blk (10 μm test cmpd) (hERG potassium channel): 51.0%
Cc1nc2ccc(Cl)cc2c(-c2ccccc2Cl)c1C(=O)OC(C)(C)C [PT-020, Tert-butyl 6-chloro-4-(2-chlorophenyl)-2-methylquinoline-3-carboxylate]	32.9%	–
CCOC(=O)c1c(C)nc2ccc(Cl)cc2c1-c1ccccc1 [PT-029, ethyl 6-chloro-2-methyl-4-phenylquinoline-3-carboxylate]	70.2%	–
CCOC(=O)c1c(C)nc2ccc(Cl)cc2c1-c1ccccc1F [PT-030, ethyl 6-chloro-4-(2-fluorophenyl)-2-methylquinoline-3-carboxylate]	55.4%	–
N#Cc1c(N)nc2ccc(Cl)cc2c1-c1ccccc1 [PT-004, 2-amino-6-chloro-4-phenylquinoline-3-carbonitrile]	15.2%	–
Cc1nc2ccc(Cl)cc2c(C)c1C(=O)OCc1ccccc1Br [PT-032, 2-bromobenzyl 6-chloro-2,4-dimethylquinoline-3-carboxylate]	82.4%	–
CCOC(=O)c1c(C)nc2ccc(Cl)cc2c1-c1ccccc1Cl [PT-021, ethyl 6-chloro-4-(2-chlorophenyl)-2-methylquinoline-3-carboxylate]	70.2%	–
CCOC(=O)c1c(CN(C)C)nc2ccc(Cl)cc2c1-c1ccccc1 [PT-024, ethyl 6-chloro-2-[(dimethylamino)methyl]-4-phenylquinoline-3-carboxylate]	57.8%	–
CCOC(=O)c1c(CN2C(=O)c3ccccc3C2=O)nc2ccc(Cl)cc2c1-c1ccccc1 [PT-007, ethyl 6-chloro-2-[(1,3-dioxo-1,3-dihydro-2H-isoindol-2-yl)methyl]-4-phenylquinoline-3-carboxylate]	24%	–
Cc1nc2ccccc2c(C)c1-c1nnc(C(C)(C)c2ccc(Cl)cc2)o1 [PT-031, 3-{5-[2-(4-chlorophenyl)propan-2-yl]-1,3,4-oxadiazol-2-yl}-2,4-dimethylquinoline]	64.4%	–
Cc1nc2ccc(Cl)cc2c(-c2ccccc2F)c1C(=O)OC(C)(C)C [PT-022, Tert-butyl 6-chloro-4-(2-fluorophenyl)-2-methylquinoline-3-carboxylate]	46.9%	–
Cc1nc2ccc(Cl)cc2c(-c2ccccc2)c1C(=O)N1CCCCC1 [PT-013, (6-chloro-2-methyl-4-phenylquinolin-3-yl)(piperidin-1-yl)methanone]	30.2%	–
Cc1nc2ccc(Cl)cc2c(-c2ccccc2)c1C(=O)OCc1ccc(Cn2cccn2)cc1 [PT-018, 4-(1H-pyrazol-1-ylmethyl)benzyl 6-chloro-2-methyl-4-phenylquinoline-3-carboxylate]	54.5%	–
Cc1nc2ccc(Cl)cc2c(-c2ccccc2)c1C(=O)OC(C)(C)C [PT-002, Tert-butyl 6-chloro-2-methyl-4-phenylquinoline-3-carboxylate]	61.1%	–
COC(=O)c1c(C)nc2ccccc2c1C [PT-025, methyl 2,4-dimethylquinoline-3-carboxylate]	26.6%	–
Cc1nc2ccc(Cl)cc2c(-c2ccccc2)c1C(=O)NCc1ccc(F)cc1 [PT-003, 6-chloro-N-(4-fluorobenzyl)-2-methyl-4-phenylquinoline-3-carboxamide]	26.3%	–
Cc1nc2ccccc2c(-c2ccccc2)c1C(=O)OCc1ccccc1 [PT-001, benzyl 2-methyl-4-phenylquinoline-3-carboxylate]	78.3%	–
Cc1nc2ccc(Cl)cc2c(-c2ccccc2)c1C(C)O (stereo not shown) [PT-023, 1-(6-chloro-2-methyl-4-phenylquinolin-3-yl)ethanol]	29.8%	–
CCOC(=O)c1c(CCl)nc2ccc(Cl)cc2c1-c1ccccc1 [PT-006, ethyl 6-chloro-2-(chloromethyl)-4-phenylquinoline-3-carboxylate]	48.8%	–
Cc1nc2ccc(Cl)cc2c(-c2ccccc2)c1C(=O)O[C@H](C)c1ccccc1 [PT-015, (1R)-1-phenylethyl 6-chloro-2-methyl-4-phenylquinoline-3-carboxylate]	37%	–
CCOCc1nc2ccccc2c(C)c1C(=O)OCC [PT-026, ethyl 2-(ethoxymethyl)-4-methylquinoline-3-carboxylate]	23.4%	–
Cc1nc2ccc(Cl)cc2c(-c2ccccc2)c1C(=O)O[C@@H](C)c1ccccc1 [PT-014, (1S)-1-phenylethyl 6-chloro-2-methyl-4-phenylquinoline-3-carboxylate]	36.1%	–

Source: US8664399B2, “Substituted heterocyclic compounds as ion channel modulators” (Gilead Sciences, Inc., priority 2008, dated 2014)
